Data: paper PMC8403083 (OncoTargets and therapy, 2021)

Legend:
[1] = target: T1, CD73 (Mus musculus, UniProt Q61503); experiment: CMP hydrolysis by EMT6 cells, Malachite green phosphate detection; assay type: cell-based
T1 sequence (Q61503 29-551): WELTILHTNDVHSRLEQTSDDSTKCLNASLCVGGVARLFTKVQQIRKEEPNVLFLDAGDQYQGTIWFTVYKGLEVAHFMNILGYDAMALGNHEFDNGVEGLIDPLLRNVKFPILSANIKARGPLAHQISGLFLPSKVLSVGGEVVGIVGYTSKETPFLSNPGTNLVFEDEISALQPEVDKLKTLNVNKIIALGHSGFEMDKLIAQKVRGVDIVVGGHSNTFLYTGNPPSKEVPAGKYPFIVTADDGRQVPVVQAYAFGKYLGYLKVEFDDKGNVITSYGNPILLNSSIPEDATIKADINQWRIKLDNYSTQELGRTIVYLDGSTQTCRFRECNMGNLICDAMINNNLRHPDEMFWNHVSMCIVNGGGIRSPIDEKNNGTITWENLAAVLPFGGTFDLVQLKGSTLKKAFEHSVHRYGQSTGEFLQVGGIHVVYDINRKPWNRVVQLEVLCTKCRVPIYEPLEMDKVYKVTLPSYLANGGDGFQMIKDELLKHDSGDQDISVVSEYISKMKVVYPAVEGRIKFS

[2] = target: T2, CD73 (5ʹ-Nucleotidase) (Homo sapiens, UniProt P21589); experiment: Malachite green phosphate assay, CMP substrate, […] h preincubation; assay type: biochemical
T2 sequence (P21589 27-547): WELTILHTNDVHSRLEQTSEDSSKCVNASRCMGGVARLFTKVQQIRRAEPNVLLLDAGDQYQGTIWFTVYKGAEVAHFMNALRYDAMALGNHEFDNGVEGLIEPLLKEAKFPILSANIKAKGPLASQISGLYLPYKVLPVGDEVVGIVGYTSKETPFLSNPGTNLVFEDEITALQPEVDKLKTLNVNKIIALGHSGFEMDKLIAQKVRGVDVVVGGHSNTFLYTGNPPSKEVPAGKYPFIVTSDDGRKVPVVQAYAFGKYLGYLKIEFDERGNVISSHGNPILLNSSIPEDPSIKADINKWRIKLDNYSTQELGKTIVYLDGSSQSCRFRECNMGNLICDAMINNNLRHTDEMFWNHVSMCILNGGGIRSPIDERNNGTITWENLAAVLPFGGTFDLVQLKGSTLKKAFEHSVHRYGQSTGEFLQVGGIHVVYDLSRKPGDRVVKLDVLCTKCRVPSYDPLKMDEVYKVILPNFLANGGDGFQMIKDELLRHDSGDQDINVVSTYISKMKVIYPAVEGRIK

| SMILES | IC50 [1] [nM] | IC50 [2] [nM] |
| --- | --- | --- |
| O=P(O)(O)COC[C@H]1O[C@@H](n2ncc3c(N4CC5(CCc6ccccc65)C4)nc(Cl)nc32)[C@H](O)[C@@H]1O [SHR170008, ((((2R,3S,4R,5R)-5-(6-chloro-4-(2ʹ,3ʹ-dihydrospiro[azetidine-3,1ʹ-inden]-1-yl)-1H-pyrazolo[3,4-d]pyrimidin-1-yl)-3,4-dihydroxytetrahydrofuran-2-yl)methoxy)methyl) phosphonic acid] | 0.133 ± 0.008 |  |
| Nc1ncnc2c1ncn2[C@@H]1O[C@H](COP(=O)(O)CP(=O)(O)O)[C@@H](O)[C@H]1O [AMPCP] | 130 ± 8 | 3.8 ± 0.8 |
